The source of these data is PMC7970121, “Combination With Tomatidine Improves the Potency of Posaconazole Against Trypanosoma cruzi” (Frontiers in Cellular and Infection Microbiology, 2021).

Structures are written as SMILES. Entries after “also recorded” stand apart in the source; their conditions may differ. Structures can show the parent of a compound that is named as a salt. Where two headings read alike, the source gives them in different places.

Data set [1] relates to Trypanosoma cruzi epimastigotes (STIB 980 strain). In words: Activity on T. cruzi epimastigotes (resazurin, 72 h). In kind it is cell-based. The following applies: STIB980, STIB 980 strain, 72 h; for EC50: n = 3, read-out: Epimastigotes (mean ± SD) EC50; for EC90: n = 3, read-out: Epimastigotes (mean ± SD) EC90. The protocol: (§1) L6 cells derived from rat skeletal myoblast (ATCC CRL-1458) were used as host cells for T. cruzi using trypomastigotes of Tulahuen C2C4 strain (DTU VI) expressing the β-galactosidase gene (LacZ) ([Buckner et al., 1996]). The cultures were sustained in RPMI-1640 supplemented with 10% inactivated fetal bovine serum (FBS) and […] at 5% CO2 and 37°C. Epimastigote T. cruzi (STIB 980 strain, DTU TcI) were cultivated at 28°C in liver infusion tryptose (LIT) medium supplemented with hemin (2 μg/ml) and 10% FBS and were used in log phase of growth. Bloodstream trypomastigotes (Y strain, DTU II) were isolated from Swiss Webster mice infected at the peak of parasitemia (≥ 2.5 × 10^6/ml), as reported ([Meirelles et al., 1986]).
Epimastigotes (10^7 parasites/ml) were incubated for 72 h at 28°C with serially diluted compound concentrations (eleven 1:3 dilutions) in supplemented LIT medium. Parasite viability and motility were evaluated by direct observation by light microscopy and fluorometric assays performed with resazurin (12.5 mg resazurin dissolved in 100 ml distilled water). After 2–4 h of incubation with resazurin solution, plates were read in Spectramax Gemini XS microplate fluorometer (Molecular Devices Cooperation, USA) using wavelengths of 536 nm (excitation) and 588 nm (emission) ([Räz et al., 1997]). Growth was expressed as percentage of the values of solvent-treated controls. The graphics program Softmax Pro (Molecular Devices) was used to construct dose–response curves and calculate EC50 (half maximal inhibitory concentration) values. Bz was used as reference drug.

In data set [2] the test system is Trypanosoma cruzi intracellular amastigotes (Tulahuen strain in rat L6 myoblasts). Nature of the data set: Activity on T. cruzi intracellular amastigotes in L6 cells (LacZ/CPRG, 96 h). Type of data set: cell-based. Particulars: for SI (Selectivity Index): EC50 on mammalian L6 cells versus EC50 on intracellular amastigotes; for EC50 / EC90: Tulahuen strain in rat L6 myoblasts, 96 h, n = 3; for EC50: read-out: Amastigotes (mean ± SD) EC50; for EC90: read-out: Amastigotes (mean ± SD) EC90. The protocol: as §1
Rat skeletal myoblasts (L6 cell lines) were seeded in 96-well plates (10^4 cells/well) in 100 μl RPMI 1640 medium supplemented with 10% fetal bovine serum (FBS) and 2 mM L-glutamine. The medium was removed after 24 h incubation and replaced by 100 μl of fresh medium containing 10^5 LacZ trypomastigotes (Tulahuen DTU VI). After 48 h, the medium was again removed and replaced with or without a serial of compound concentrations (eleven three-fold dilution steps). After 96 h of compound exposure, CPRG/Nonidet (50 μl) substrate was added and the reading performed after 2–6 h at 540 nm in Versamax microplate reader (Molecular Devices Cooperation, USA). Growth was expressed as percentage of the values of solvent-treated controls. The graphics program Softmax Pro (Molecular Devices) was used to construct dose–response curves and calculate EC50 values. Bz was used as reference drug.

A short description of data set [3]: Cytotoxicity against L6 cells (resazurin, 72 h). In kind it is cell-based, rat. The protocol: Rat skeletal myoblasts (L6 cell lines) were seeded in 96-well plates (4 × 10^4 cells/well) in 100 μl RPMI 1640 medium supplemented with 10% fetal bovine serum (FBS) and 2 mM L-glutamine. After 24 h incubation the medium was replaced with 100 μl of fresh medium with or without a serial dilution of compound concentrations (eleven three-fold dilution steps). After 72 h of compound exposure, fluorescent dye resazurin (10 μl, 12.5 mg resazurin dissolved in 100 ml water) was added for 2 h and the readings performed at Spectramax Gemini XS microplate fluorometer (Molecular Devices Cooperation, USA), with excitation wavelength of 536 nm and an emission wavelength of 588 nm. Growth was expressed as percentage of the values of solvent-treated controls. The graphics program Softmax Pro (Molecular Devices) was used to construct dose–response curves and calculate EC50 values. Podophyllotoxin (a microtubule destabilizing agent) was used as positive control.

A further data set concerns T. cruzi (Y strain). Nature of the data set: Mouse model of acute T. cruzi infection: parasitemia and mortality. In kind it is in vivo, Trypanosoma cruzi. The procedure:
Male Swiss Webster mice (18–23 g) were obtained from the Instituto de Ciência e Tecnologia em Biomodelos (ICTB/Fiocruz) (Rio de Janeiro, Rio de Janeiro, Brazil). Five mice were housed per cage, kept in a conventional room at 20–24°C under 12 h/12 h light/dark cycle. Sterilized water and chow were provided ad libitum. The animals were acclimated for 7 days before being used in the different assays. All procedures were done following Biosafety Guidelines in compliance with the Fiocruz and all animal procedure approved by the Committee of Ethics for the Use of Animals (CEUA L-38/17).
Male mice (n = 5 per group) were infected i.p. with 10^4 bloodstream trypomastigotes of T. cruzi (Y strain). Only mice with positive parasitemia at day 5 post infection (dpi) were included in the studies. […] Uninfected and T. cruzi-infected mice treated only with vehicle (aqueous solution of 0.5% carboxymethylcellulose) were age-matched and housed under identical conditions and used as controls ([Simões-Silva et al., 2017]). All compound formulations were freshly prepared before every administration.
All animals were individually checked for circulating blood parasitemia by counting the number of parasites in 5 µl of blood taken from the tail vein and investigated under the microscope ([Brener, 1962]). Parasitemia was checked till 30 dpi, while mortality was checked daily up to 30 days after the administration of the last dose. Mortality was given as percentage of cumulative mortality (CM) ([Simões-Silva et al., 2017]).

Data set [4] can be described thus: Toxicity in female mice after p.o. administration. Type of data set: in vivo. The following applies: up to 200 mpk (data not shown).
In data set [5] the test system is T. cruzi epimastigote cultures. Also noted: method as in Chataing et al., 1998. The following applies: after four days of incubation; ref Chataing et al., 1998; read-out: Concentration inhibiting growth of epimastigote cultures to 50%; cited from earlier work.
[6] abbreviates: Trypanosoma cruzi, TULAHUEN, L6, 96 h.
[7] abbreviates: TH alone, all tested doses (up to 5 mpk) p.o., 10 days, mice.

For the compound `CC[C@@H]([C@H](C)O)n1ncn(-c2ccc(N3CCN(c4ccc(OC[C@@H]5CO[C@@](Cn6cncn6)(c6ccc(F)cc6F)C5)cc4)CC3)cc2)c1=O` [Posaconazole], the EC50 in data set [1] is above 14.2 µM; in data set [2] (setting [6]), 0.002 ± 0.001 µM. Further, the EC90 in data set [1] is above 14.2 µM; in data set [2] (Trypanosoma cruzi) it was 0.016 ± 0.005 µM. The “SI (Selectivity Index)” value in data set [2] is listed as above 700. For the same compound, in data set [3] (rat), the EC50 at 72 h is above 1.42 µM. Also, the “Decrease of the parasitemia peak” value in the data set on T. cruzi (Y strain) (Posa 1.25 mpk (suboptimal dose) p.o., 10 days (5-14 dpi), mice) is on record as “about 80%”. Further, in the data set with T. cruzi (Y strain) (Posa 1.25 mpk p.o., 10 days (5-14 dpi)), the Animal survival is given as 20%. Also, the Survival of mice in the data set with T. cruzi (Y strain) (Posa 10 mpk p.o., 10 days (5-14 dpi)) came out at 40%. In addition, the “Effect on parasitemia on the peak (8 dpi)” value with T. cruzi (Y strain) (Posa 10 mpk p.o., 10 days (5-14 dpi), mice) is recorded as “suppressed parasitemia on the peak”. Besides, the Signs of toxicity result in data set [4] is given as “did not show any signs of toxicity”.

Consider `C[C@H]1CC[C@]2(NC1)O[C@H]1C[C@H]3[C@@H]4CC[C@H]5C[C@@H](O)CC[C@]5(C)[C@H]4CC[C@]3(C)[C@H]1[C@@H]2C` [Tomatidine (hydrochloride), Tomatidine], for which the EC50 in data set [1] is 192 ± 8.1 µM; in data set [2] (setting [6]), at most 1 µM; in data set [2], 0.78 ± 0.2 µM; in data set [5], 5.7 µM. Moreover, the EC90 is above 221 µM in data set [1] and 1.8 ± 0.2 µM in data set [2] (Trypanosoma cruzi). In addition, the “SI (Selectivity Index)” value in data set [2] turned out to be 115. Moreover, the EC50 at 72 h in data set [3] (rat L6 myoblasts, 72 h, n = 3, read-out: L6 cells (mean ± SD) EC50) worked out at 89.5 ± 26.7 µM. Further, the “Maximum reduction in blood parasitemia on the peak” value in the data set with T. cruzi (Y strain) (setting [7]) is on record as at most 28%. Moreover, in the data set on T. cruzi (Y strain) (setting [7]), the “Protection against mortality induced by the infection” value was “all animals died by 20 dpi”. Moreover, in the data set on T. cruzi (Y strain) (TH alone, doses 0.5 to 5 mg/kg, acute mouse model, listed as TH), the “Antiparasitic activity in vivo” value is recorded as “lack of antiparasitic activity; also recorded: did not present antiparasitic activity”. Further, the Signs of toxicity result in data set [4] is “did not show any signs of toxicity”.

For orientation: EC90 means the point of the concentration-response curve where the effect stands at 90%.
